# Measurements taken from patent US8513232B2, “Substituted spirocyclic piperidine derivatives as histamine-3 (H3) receptor ligands” (Cephalon, Inc., priority 2008, dated 2013).
# Where two headings read alike, the source gives them in different places.
# Columns and labels:
# human H3 receptor = target: T1, human H3 receptor (Homo sapiens, UniProt Q9Y5N1); assay: Human H3 radioligand binding ([3H]-N-alpha-methylhistamine, SPA)
# T1 construct: expressed in transfected cells
# In short: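 Compounds (0.01 nM-30 μM) competed with approximately 1 nM [3H]-N-alpha-methylhistamine for human H3 receptor in membranes of stably transfected CHO cells, 10 μg protein per well, in Tris-HCl pH 7.4/MgCl2/BSA buffer for 4 h at room temperature. Bound radioligand measured by scintillation proximity; 10 μM clobenpropit gave non-specific binding.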
# [1] = target: T2, rat histamine H3 receptor (Rattus norvegicus, UniProt Q9QYN8); assay: Rat H3 radioligand binding ([3H]-N-alpha-methylhistamine, SPA)
# T2 construct: encoding the entire 445-amino-acid rat histamine H3 receptor; expressed in transfected cells; membrane preparation
# T2 sequence (Q9QYN8 whole entry): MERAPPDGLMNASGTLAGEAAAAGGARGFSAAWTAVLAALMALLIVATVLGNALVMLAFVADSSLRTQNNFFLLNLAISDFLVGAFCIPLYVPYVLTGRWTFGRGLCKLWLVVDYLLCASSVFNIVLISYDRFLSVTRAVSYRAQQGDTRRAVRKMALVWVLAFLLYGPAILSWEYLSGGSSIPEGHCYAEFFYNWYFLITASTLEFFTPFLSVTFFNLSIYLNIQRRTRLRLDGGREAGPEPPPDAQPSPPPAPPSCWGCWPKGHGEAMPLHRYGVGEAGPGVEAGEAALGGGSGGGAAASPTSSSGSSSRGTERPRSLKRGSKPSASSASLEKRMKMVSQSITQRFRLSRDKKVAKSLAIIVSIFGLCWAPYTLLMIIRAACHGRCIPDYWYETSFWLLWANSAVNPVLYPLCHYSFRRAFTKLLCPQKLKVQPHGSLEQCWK
# In short: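 SPA-bead binding assay using [3H]-N-alpha-methylhistamine (approximately 1 nM final) with test compounds from 0.01 nM to 30 μM. Rat H3 receptor membranes came from stably transfected CHO-A3 cells; incubation ran 4 h at room temperature, in the dark, in Tris pH 7.4 buffer with MgCl2 and BSA. Clobenpropit (10 μM) gave non-specific binding.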
# [2] = Table A, human H3 binding, read-out: Human Ki
# [3] = Table A, rat H3 binding, read-out: Rat Ki
# [4] = human H3 binding, Table D, read-out: Human H3 Ki
# [5] = rat H3 binding, Table D, read-out: Rat H3 Ki
# [6] = Human H3 binding, Table B, Examples 136-362, read-out: hum H3 binding Ki
# [7] = Rat H3 binding, Table B, Examples 136-362, read-out: rat H3 binding Ki
# [8] = Table C, human H3 binding, read-out: Human H3 Ki
# [9] = Table C, rat H3 binding, read-out: Rat H3 Ki
# T1 sequence (Q9Y5N1 whole entry): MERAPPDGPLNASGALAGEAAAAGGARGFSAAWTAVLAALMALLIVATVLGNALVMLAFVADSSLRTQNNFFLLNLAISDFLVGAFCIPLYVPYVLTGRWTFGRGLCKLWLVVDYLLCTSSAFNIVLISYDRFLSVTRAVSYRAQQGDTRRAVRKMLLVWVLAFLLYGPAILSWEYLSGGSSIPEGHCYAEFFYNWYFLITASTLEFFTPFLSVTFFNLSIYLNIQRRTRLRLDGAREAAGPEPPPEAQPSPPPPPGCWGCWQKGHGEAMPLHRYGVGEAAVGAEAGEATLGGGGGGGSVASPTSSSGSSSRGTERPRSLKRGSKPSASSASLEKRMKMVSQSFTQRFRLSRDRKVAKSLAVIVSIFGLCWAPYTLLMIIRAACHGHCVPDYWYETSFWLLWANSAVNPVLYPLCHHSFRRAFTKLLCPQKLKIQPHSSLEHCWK
Compound,melting point,Ki (human H3 receptor; [4]) [nM],"Ki [1, 5] [nM]",Ki (human H3 receptor; [6]) [nM],"Ki [1, 7] [nM]",further results
O=C(c1cccc(-c2ccc3c(c2)COC2(CCN(C4CCC4)CC2)O3)c1)N1CCCC1 [Example 57],221.7 °C,–,–,–,–,"Ki (human H3 receptor; [2]): < 200 nM; Ki [1, 3]: < 200 nM"
COc1ccc(-c2ccc3c(c2)COC2(CCN(C4CCC4)CC2)O3)c(C)n1 [Example 726],131 to 133 °C,< 200,< 200,–,–,–
COc1cc(-c2ccc3c(c2)COC2(CCN(C4CCC4)CC2)O3)c(F)cn1 [Example 754],135 to 136 °C,< 200,< 200,–,–,–
O=C1CC(c2ccc3c(c2)COC2(CCN(C4CCC4)CC2)O3)CCN1 (stereo not drawn) [Example 565],182 to 184 °C,–,–,–,–,Ki (human H3 receptor; read-out: Human H3 Ki): < 200 nM; Ki ([1]; read-out: Rat H3 kI): < 200 nM
COCCN(C)C(=O)c1ccc(-c2ccc3c(c2)COC2(CCN(C4CCC4)CC2)O3)cc1 [Example 306],232 to 234 °C,–,–,< 200,< 200,–
CNC(=O)C1CCN(c2ccc3c(c2)COC2(CCN(C4CCC4)CC2)O3)CC1 [Example 453],> 245 °C (dec.),–,–,–,–,Ki (human H3 receptor; read-out: Human H3 Ki): < 200 nM; Ki ([1]; read-out: Rat H3 kI): < 200 nM
O=C1CCC(Cc2ccc3c(c2)COC2(CCN(C4CCC4)CC2)O3)CN1 (stereo not drawn) [Example 539],219 to 221 °C,–,–,–,–,Ki (human H3 receptor; read-out: Human H3 Ki): < 200 nM; Ki ([1]; read-out: Rat H3 kI): < 200 nM
c1csc(N2CCN(c3ccc4c(c3)CCC3(CCN(C5CCC5)CC3)O4)CC2)n1 [Example 374],182 to 184 °C,–,–,–,–,"Ki (human H3 receptor; [8]): < 200 nM; Ki [1, 9]: < 200 nM"
c1cc(CNc2ccc3c(c2)COC2(CCN(C4CCC4)CC2)O3)cs1 [Example 336],101 to 102 °C,–,–,< 200,< 200,–
Cc1cc(=O)n(C(F)F)cc1-c1ccc2c(c1)COC1(CCN(C3CCC3)CC1)O2 [Example 764],119 to 121 °C,< 200,< 200,–,–,–
Cc1nnc(COc2ccc3c(c2)CCC2(CCN(C4CCC4)CC2)O3)o1 [Example 615],97 to 98 °C,< 200,< 200,–,–,–
CCSc1cc(-c2ccc3c(c2)COC2(CCN(C4CCC4)CC2)O3)c[nH]c1=O [Example 728],241 to 243 °C,< 200,< 200,–,–,–
CCNC(=O)C1CCC(O)(c2ccc3c(c2)COC2(CCN(C4CCC4)CC2)O3)CC1 (stereo not drawn) [Example 514],195 to 196 °C,–,–,–,–,Ki (human H3 receptor; read-out: Human H3 Ki): < 200 nM; Ki ([1]; read-out: Rat H3 kI): < 200 nM
O=c1ccc(C(O)c2ccc3c(c2)COC2(CCN(C4CCC4)CC2)O3)c[nH]1 (stereo not drawn) [Example 526],217 to 219 °C,–,–,–,–,Ki (human H3 receptor; read-out: Human H3 Ki): < 200 nM; Ki ([1]; read-out: Rat H3 kI): < 200 nM
CC(=O)NC1CCN(c2ccc3c(c2)COC2(CCN(C4CCC4)CC2)O3)CC1 [Example 328],190.8 to 192 °C,–,–,< 200,< 200,–
CNC(=O)c1ccc(-c2ccc3c(c2)COC2(CCN(C4CCC4)CC2)O3)cc1F [Example 36],147.8 to 149 °C,–,–,–,–,"Ki (human H3 receptor; [2]): < 200 nM; Ki [1, 3]: < 200 nM"
CN(C)C(=O)NC1CCN(c2ccc3c(c2)CCC2(CCN(C4CCC4)CC2)O3)CC1 [Example 573],204.2 to 206.4 °C,< 200,< 200,–,–,–
O=C(CCc1ccc2c(c1)COC1(CCN(C3CCC3)CC1)O2)NC1CCOCC1 [Example 645],167 to 169 °C,< 200,200 to 1000,–,–,–
c1ccc(COc2ccc3c(c2)CCC2(CCN(C4CCC4)CC2)O3)cc1 [Example 189],102 to 103 °C,–,–,< 200,< 200,–
CC(C)C(=O)NC1CCN(c2ccc3c(c2)COC2(CCN(C4CCC4)CC2)O3)CC1 [Example 324],208.4 to 210.6 °C,–,–,< 200,< 200,–

Compound,melting point,Ki (human H3 receptor; [4]) [nM],"Ki [1, 5] [nM]",Ki (human H3 receptor; [6]) [nM],"Ki [1, 7] [nM]",further results
COCC(C)(C)NC(=O)c1ccc(-c2ccc3c(c2)COC2(CCN(C4CCC4)CC2)O3)cc1 [Example 284],138 to 140 °C,–,–,< 200,< 200,–
O=C(Cc1ccncc1)Nc1ccc2c(c1)COC1(CCN(C3CCC3)CC1)O2 [Example 331],170 to 172 °C,–,–,< 200,< 200,–
CNC(=O)c1ccc(-c2ccc3c(c2)COC2(CCN(C4CCC4)CC2)O3)nc1 [Example 590],175 to 177 °C,< 200,< 200,–,–,–
O=C(NCCO)c1ccc(-c2cc(F)c3c(c2)COC2(CCN(C4CCC4)CC2)O3)cc1 [Example 141],145 to 147 °C,–,–,< 200,< 200,–
O=S1(=O)CCC(Oc2ccc3c(c2)CCC2(CCN(C4CCC4)CC2)O3)C1 (stereo not drawn) [Example 490],252 to 254 °C,–,–,–,–,Ki (human H3 receptor; read-out: Human H3 Ki): < 200 nM; Ki ([1]; read-out: Rat H3 kI): < 200 nM
COCCN(C)C(=O)c1ccc(-c2ccc3c(c2)CCC2(CCN(C4CCC4)CC2)O3)cc1 [Example 303],225 to 227 °C,–,–,< 200,< 200,–
c1cc(COc2ccc3c(c2)CCC2(CCN(C4CCC4)CC2)O3)ccn1 [Example 269],233 to 235 °C,–,–,< 200,< 200,–
CCOC(=O)c1cc(=O)n(C)cc1-c1ccc2c(c1)COC1(CCN(C3CCC3)CC1)O2 [Example 762],71 to 74 °C,< 200,< 200,–,–,–
c1ncc(COc2ccc3c(c2)CCC2(CCN(C4CCC4)CC2)O3)o1 [Example 325],45 to 47 °C,–,–,< 200,< 200,–
c1cc(-c2ccc3c(c2)COC2(CCN(C4CCC4)CC2)O3)[nH]n1 [Example 730],140 to 141 °C,< 200,< 200,–,–,–
CN(C)C(=O)c1cc(COc2ccc3c(c2)CCC2(CCN(C4CCC4)CC2)O3)ccn1 [Example 623],165 to 167 °C,< 200,< 200,–,–,–
CN(C)C(=O)c1ccccc1Nc1ccc2c(c1)COC1(CCN(C3CCC3)CC1)O2 [Example 166],50 to 53 °C,–,–,< 200,< 200,–
O=C(Cc1ccccn1)Nc1ccc2c(c1)COC1(CCN(C3CCC3)CC1)O2 [Example 322],166 to 168 °C,–,–,< 200,< 200,–
CCOC(=O)C1CCN(c2ccc3c(c2)CCC2(CCN(C4CCC4)CC2)O3)CC1 [Example 384],256 to 258 °C,–,–,–,–,"Ki (human H3 receptor; [8]): < 200 nM; Ki [1, 9]: < 200 nM"
O=C(c1ccc(-c2ccc3c(c2)CCC2(CCN(C4CCC4)CC2)O3)cc1F)N1CCC(O)CC1 [Example 240],102.8 to 104.6 °C,–,–,< 200,< 200,–
CC(=O)N[C@H]1CCN(c2ccc3c(c2)COC2(CCN(C4CCC4)CC2)O3)C1 [Example 342],77.9 to 80 °C,–,–,< 200,< 200,–
Cn1cc(-c2ccc3c(c2)COC2(CCN(C4CCC4)CC2)O3)c2ccccc2c1=O [Example 786],207 to 209 °C,< 200,< 200,–,–,–
OCc1cn(-c2ccc3c(c2)COC2(CCN(C4CCC4)CC2)O3)c2ccccc12 [Example 84],138 to 141 °C,–,–,–,–,"Ki (human H3 receptor; [2]): < 200 nM; Ki [1, 3]: < 200 nM"
OC1(c2ccc3c(c2)COC2(CCN(C4CCC4)CC2)O3)COC1 [Example 505],180 to 183 °C,–,–,–,–,Ki (human H3 receptor; read-out: Human H3 Ki): < 200 nM; Ki ([1]; read-out: Rat H3 kI): < 200 nM
CCc1[nH]c(=O)ccc1-c1ccc2c(c1)COC1(CCN(C3CCC3)CC1)O2 [Example 767],230 to 231 °C,< 200,< 200,–,–,–
